Active and inactive are the calls of the source. The rule behind the calls is not given here.
Tested on: virus-infected cells, CPE inhibition, dose response
Assay: PubChem AID 806
Conditions: for EC90: measured here: EC90 CPE inhibition; for CC50: measured here: cytotoxicity, cell viability IC50

Compound	EC50	EC90	CC50
O=C(CSc1ccc2nnc(-c3ccccn3)n2n1)NCc1ccco1	> 60 µM (inactive)	> 60 µM	> 60 µM
CCOc1ccc(Nc2ncnc3c2cnn3-c2ccccc2)cc1	> 60 µM (inactive)	> 60 µM	> 60 µM
COc1ccccc1Cn1c(=O)[nH]c2cccnc21	> 60 µM (inactive)	> 60 µM	> 60 µM
Cc1cc2oc(C(=O)Nc3cccnc3)c(C)c2cc1C	> 60 µM (inactive)	> 60 µM	> 60 µM
O=C(Nc1ccncc1)c1cc2ccccc2o1	> 60 µM (inactive)	> 60 µM	> 60 µM
COc1ccccc1Cn1c(=O)c2ccccc2n2c(Sc3ncnc4sccc34)nnc12	> 60 µM (inactive)	> 60 µM	> 60 µM
COc1ccccc1CNC(=O)c1ccc(S(=O)(=O)N(C)C)cc1	> 60 µM (inactive)	> 60 µM	> 60 µM
O=C(CCS(=O)(=O)c1cccc2nsnc12)NCc1ccccc1	> 60 µM (inactive)	> 60 µM	> 60 µM
COc1cccc(NC(=O)C2CC(=O)OC23CCOC(C)(C)C3)c1 (stereo unspecified)	> 60 µM (inactive)	> 60 µM	> 60 µM
O=C(Nc1ccccc1)c1cc2ccccc2o1	> 60 µM (inactive)	> 60 µM	> 60 µM
COc1ccc(NC(=O)C2CCCCN2S(=O)(=O)c2ccc(F)cc2)c(OC)c1 (stereo unspecified)	> 60 µM (inactive)	> 60 µM	> 60 µM
CCC(=O)N1CCn2c1nc1ccccc12	> 60 µM (inactive)	> 60 µM	> 60 µM
O=C(Nc1ccccn1)c1cc2ccccc2o1	> 60 µM (inactive)	> 60 µM	23.9 µM
CN(C)CCNc1ncnc2c1sc1nc(N3CCOCC3)c3c(c12)CC(C)(C)SC3	> 60 µM (inactive)	> 60 µM	16.3 µM
CCc1c(C)nc2[nH]nc(-c3ccccc3C)n2c1=O	> 60 µM (inactive)	> 60 µM	> 60 µM
O=C(Nc1nc(-c2ccccc2)cs1)C1CCCCN1S(=O)(=O)c1ccccc1 (stereo unspecified)	> 60 µM (inactive)	> 60 µM	> 60 µM
CC(C)c1ccc(C2NC(=O)NC3=C2CCc2ccccc23)cc1 (stereo unspecified)	> 60 µM (inactive)	> 60 µM	> 60 µM
Cc1nc2scc(-c3ccco3)c2c(=O)n1/N=C/N(C)C	> 60 µM (inactive)	> 60 µM	> 60 µM
CCCCOc1ccc(C(=O)C(CN2CCOCC2)c2ccccc2)cc1 (stereo unspecified)	> 60 µM (inactive)	> 60 µM	> 60 µM
COC(=O)Cc1c(C)nc2nc(-c3ccccc3)[nH]n2c1=O	> 60 µM (inactive)	> 60 µM	> 60 µM
Cc1ccc(/C=C/C(=O)c2c(C)cc(C)[nH]c2=O)cc1	> 60 µM (inactive)	> 60 µM	> 60 µM
CCSc1nnc([C@H](Cc2ccccc2)NC(=O)OC(C)(C)C)o1	> 60 µM (inactive)	> 60 µM	> 60 µM
O=C(Nc1ccc2nc3n(c(=O)c2c1)CCCCC3)c1ccccc1Cl	> 60 µM (inactive)	> 60 µM	> 60 µM

Compound	EC50	EC90	CC50
CCN(c1ccccc1)c1ncnc2c1cnn2-c1ccccc1	> 60 µM (inactive)	> 60 µM	> 60 µM
O=C(O)CCc1nnc2n(Cc3ccc(F)cc3)c(=O)c3ccccc3n12	> 60 µM (inactive)	> 60 µM	> 60 µM
O=C(c1cnn2c(C(F)(F)F)cc(-c3ccccc3)nc12)N1CCOCC1	> 60 µM (inactive)	> 60 µM	> 60 µM
COc1ccccc1NC(=O)c1cc2ccccc2o1	> 60 µM (inactive)	> 60 µM	> 60 µM
COc1ccccc1NC(=O)c1oc2ccc(C)cc2c1C	> 60 µM (inactive)	> 60 µM	> 60 µM
O=C1NC2=C(CCc3ccccc32)C(c2ccc(Br)cc2)N1 (stereo unspecified)	4.34 µM	27.2 µM	> 60 µM
Cc1nc2nc(-c3ccccc3)[nH]n2c(=O)c1Cc1ccccc1	> 60 µM (inactive)	> 60 µM	> 60 µM
NS(=O)(=O)c1ccc(CCNC(=O)C2CCCCN2S(=O)(=O)c2ccccc2)cc1 (stereo unspecified)	> 60 µM (inactive)	> 60 µM	> 60 µM
Cc1cccc(-n2ncc3c(Nc4ccc(F)cc4)ncnc32)c1	> 60 µM (inactive)	> 60 µM	> 60 µM
COc1cccc(Nc2ncnc3c2cnn3-c2cccc(C)c2)c1	> 60 µM (inactive)	> 60 µM	> 60 µM
Cc1ccc(NC(=O)C2=C(O)c3sccc3N(C)S2(=O)=O)cc1	> 60 µM (inactive)	> 60 µM	> 60 µM
CCOc1ccccc1Nc1ncnc2c1cnn2-c1ccccc1	> 60 µM (inactive)	> 60 µM	> 60 µM
Cc1ccc(SCC(=O)Nc2ccc(-c3nnc(-c4ccco4)o3)cc2)cc1	> 60 µM (inactive)	> 60 µM	> 60 µM
CCOC(=O)CN(C(=O)Cn1nnc2ccccc21)C(C(=O)NCCOC)c1ccccc1C (stereo unspecified)	> 60 µM (inactive)	> 60 µM	> 60 µM
COCCCNC(=O)C1CCCCN1S(=O)(=O)c1ccc(F)cc1 (stereo unspecified)	> 60 µM (inactive)	> 60 µM	> 60 µM
Cc1ccc(C2NC(=O)NC3=C2CCc2ccccc23)cc1 (stereo unspecified)	1.75 µM	> 60 µM	> 60 µM
COc1ccc(OC)c(NC(=O)c2cc3ccccc3o2)c1	> 60 µM (inactive)	> 60 µM	> 60 µM
CC(=O)Nc1ccc(Nc2ncnc3c2cnn3-c2ccc(C)cc2C)cc1	> 60 µM (inactive)	> 60 µM	> 60 µM
O=C(c1cnn2c(C(F)F)cc(C3CC3)nc12)N1CCOCC1	> 60 µM (inactive)	> 60 µM	> 60 µM
Cn1nc([N+](=O)[O-])nc1Sc1nnc(-c2ccccc2)o1	> 60 µM (inactive)	> 60 µM	> 60 µM
CC1CCN(C(=O)Nc2cccc(NC(=O)N3CCC(C)CC3)c2)CC1	> 60 µM (inactive)	> 60 µM	> 60 µM
CC(C)c1cccc(C(C)C)c1OCCCCN1CCCC1	> 60 µM (inactive)	> 60 µM	> 60 µM
Clc1ccc(Nc2ncnc3c2cnn3-c2ccccc2)cc1	> 60 µM (inactive)	> 60 µM	> 60 µM

Compound	EC50	EC90	CC50
COc1ccccc1NC(=O)CS(=O)(=O)c1cccc2nsnc12	> 60 µM (inactive)	> 60 µM	> 60 µM
CN(C)S(=O)(=O)c1ccc(C(=O)NCc2ccccc2)cc1	> 60 µM (inactive)	> 60 µM	> 60 µM
NC(=O)CSc1nnc2sc3ccccc3n12	> 60 µM (inactive)	> 60 µM	> 60 µM
CCN(CC)S(=O)(=O)c1ccc(C(=O)NCc2ccc(C)cc2)cc1	> 60 µM (inactive)	> 60 µM	> 60 µM
COc1ccc(NC(=O)C2CCCCN2S(=O)(=O)c2ccc(F)cc2)cc1 (stereo unspecified)	> 60 µM (inactive)	> 60 µM	> 60 µM
O=C(c1cc(-c2ccc(Cl)cc2)n(-c2ccc(Cl)cc2)n1)N1CCOCC1	> 60 µM (inactive)	> 60 µM	4.34 µM
CN1C(=O)Cn2c1nc1ccccc12	> 60 µM (inactive)	> 60 µM	> 60 µM
O=C(CSc1ccc2nnc(-c3ccc(F)cc3)n2n1)NCc1ccco1	> 60 µM (inactive)	> 60 µM	> 60 µM
CCOC(=O)/C=C1\SCC(=O)N1CC(=O)NC12CC3CC(CC(C3)C1)C2	> 60 µM (inactive)	> 60 µM	> 60 µM
COc1cccc(CNC(=O)CCS(=O)(=O)c2cccc3nsnc23)c1	> 60 µM (inactive)	> 60 µM	> 60 µM
Cc1ccccc1Nc1ncnc2c1cnn2-c1ccccc1	> 60 µM (inactive)	> 60 µM	> 60 µM
CCC(Oc1ccccc1)C(=O)Nc1ccc(-c2nnc(-c3ccco3)o2)cc1 (stereo unspecified)	> 60 µM (inactive)	> 60 µM	> 60 µM
CCCN(CCC)C(=O)CCS(=O)(=O)c1cccc2nsnc12	> 60 µM (inactive)	> 60 µM	> 60 µM
O=C(Nc1ccccc1)N1CCn2c1nc1ccccc12	> 60 µM (inactive)	> 60 µM	> 60 µM
COc1cccc(C(=O)Nc2ccc(-c3nnc(-c4ccco4)o3)cc2)c1	> 60 µM (inactive)	> 60 µM	> 60 µM
Cc1ccc(NC(=O)C2CC(=O)OC23CCOC(C)(C)C3)cc1 (stereo unspecified)	> 60 µM (inactive)	> 60 µM	> 60 µM
CCOc1ccccc1NC(=O)C1CCCCN1S(=O)(=O)c1ccc(F)cc1 (stereo unspecified)	> 60 µM (inactive)	> 60 µM	> 60 µM
COc1ccccc1Cn1c(=O)c2ccccc2n2c(SCC(=O)N3CCCCC3)nnc12	> 60 µM (inactive)	> 60 µM	> 60 µM
Cc1cc(C(=O)Nc2c(C)n(C)n(-c3ccccc3)c2=O)c(C)o1	> 60 µM (inactive)	> 60 µM	> 60 µM
CC(=O)Nc1ccc(Nc2ncnc3c2cnn3-c2cccc(C)c2)cc1	> 60 µM (inactive)	> 60 µM	> 60 µM
CC(c1ccco1)N(C(=O)COc1ccccc1[N+](=O)[O-])c1ccccn1 (stereo unspecified)	> 60 µM (inactive)	> 60 µM	> 60 µM
Cc1ccc(C)c(Cc2c(C)nc3c(C(=O)N4CCOCC4)cnn3c2C)c1	> 60 µM (inactive)	> 60 µM	> 60 µM
NC1C2CN(c3nc4c(cc3F)c(=O)c(C(=O)O)cn4-c3ccc(F)cc3F)CC12 (stereo unspecified)		> 60 µM	45.1 µM

From PubChem BioAssay AID806 (SRMLSC, 2007)
